Measured values published in publication PMC11091889, “Silver Organometallics that are Highly Potent Thioredoxin and Glutathione Reductase Inhibitors: Exploring the Correlations of Solution Chemistry with the Strong Antibacterial Effects” (ACS Infectious Diseases, 2024).

Tests used:
[1] = tested on: K. pneumoniae (DSM 11678, ATCC33495); test: Broth microdilution antibacterial assay; assay type: cell-based, Klebsiella pneumoniae; details: n = 3, MHB; for MIC K. pneumoniae / EC50: mean ± standard error; for MIC K. pneumoniae / MIC K. pneumoniae (value in brackets): 22 h; for EC50: read-out: EC50 K. pneumoniae
Description: (§1) The antibacterial effect of the silver NHC complexes and selected ligands was evaluated in two Gram-positive [Enterococcus faecium, methicillin resistant S. aureus, (MRSA)] and in four Gram-negative (Acinetobacter baumannii, Escherichia coli, Klebsiella pneumoniae, and Pseudomonas aeruginosa) pathogenic bacterial strains using broth microdilution assays. The resulting minimal inhibitory concentrations (MICs, Table 2) and EC50 (Table S6) were determined by a curve fitting procedure. Silver nitrate (AgNO3), SSD, and various antibiotics were used as references.
(§2) The following strains of ESKAPE panel were utilized and maintained at 37 °C in MHB (21 g/L Müller Hinton broth, pH 7.4) or TSY (30 g/L trypticase soy broth, 3 g/L yeast extract, pH 7.0–7.2) media: A. baumannii (DSM 30007, ATCC 19606), E. coli (DSM1116, ATCC 9637), K. pneumoniae (DSM 11678, ATCC33495), P. aeruginosa PA7 (DSM 24068) in MHB; E. faecium (DSM 20477, ATCC 19434), and S. aureus MRSA (DSM 11822, ICB 25701) in TSY. MIC values were determined following a standardized protocol in broth microdilution assays. The compounds and reference substances (AgNO3 and SSD) were serially diluted from 64 to 1 μg/mL. Starting inocula of 2–8 × 10^5 CFU/mL in MHB or TSY media at 37 °C were used, and serial dilutions were carried out in 96-well microtiter plates in duplicate. After incubation of the plates for 22 h at 37 °C, the absorbance at 600 nm was measured using The Spark multimode microplate reader (Tecan Trading AG). The MIC values for the tested compounds were determined in three independent experiments and presented in μM with standard errors and also in μg/mL. Amikacin (P. aeruginosa), linezolid (S. aureus), and ciprofloxacin (all other strains) served as positive controls. The MIC and EC50 values were determined by curve fitting with Sigma Plot. To determine the effect of the culture medium on the activity of silver compounds, the assay was performed using MHB, TSY, or DMEM (Gibco). To observe the effect of individual components of TSY medium, antibacterial tests were performed using MHB with addition of tryptone (17 g/L) or yeast extract (3 g/L, both were purchased from Sigma).

[2] = tested on: S. aureus MRSA (DSM 11822, ICB 25701); test: microbe, parasite or virus in culture; assay type: cell-based, methicillin resistant S. aureus; details: n = 3, TSY; for MIC MRSA / EC50: mean ± standard error; for MIC MRSA / MIC MRSA (value in brackets): 22 h; for EC50: read-out: EC50 MRSA
Description: as §1
The importance of the culture medium used in antibacterial assays has been pointed out for antibiotics and in particular for silver.[53]−[55] In our recent studies, tryptic soy yeast (TSY) broth has been used for growing Gram-positive bacteria. Two components thereof, tryptone and yeast extract, have been reported to affect the antibacterial activity of silver nitrate.[55] Moreover, such an effect was also observed for other media containing at least one of those components.[11],[53] […] Silver nitrate served as a reference, and three different growth media were studied, namely, Müller-Hinton Broth (MHB, commonly used for Gram-negative bacteria), TSY broth (commonly used for Gram-positive bacteria), and DMEM supplemented with 10% FCS (commonly used for growth of mammalian and human cells).
as §2

[3] = Conductometry: molar conductivity of silver complexes in DMSO; assay type: physicochemical; details: 1.0 mM in DMSO, calculated as monocarbene (NHC)AgX
Description: Since both the neutral monocarbene and the ionic biscarbene form of the complexes may exist in various proportions in the solution, conductometry studies were performed to reveal the dominant structure. The molar conductivity of 1.0 mM solutions of each complex in DMSO was determined after different periods up to 24 h using AgNO3 as 1:1 electrolyte reference (see Table 1). According to the literature, the expected range of molar conductivity for 1:1 electrolytes in DMSO is 35–90 S cm^2 mol^–1.[45],[46]
Conductivity measurements were performed using an Apera Instruments EC9500 conductivity meter. Solutions (as indicated, otherwise 1.0 mM) of all compounds were prepared using freshly distilled DMSO with a specific electrical conductivity of ≤3 × 10^–8 S cm^–1. The conductivities were measured at 25 ± 2 °C immediately after complete dissolution and after 24 h.

[4] = tested on: P. aeruginosa PA7 (DSM 24068); test: microbe, parasite or virus in culture; assay type: cell-based, Pseudomonas aeruginosa; details: n = 3, MHB; for MIC P. aeruginosa / EC50: mean ± standard error; for MIC P. aeruginosa / MIC P. aeruginosa (value in brackets): 22 h; for EC50: read-out: EC50 P. aeruginosa
Description: as §1, §2

[5] = tested on: E. faecium (DSM 20477, ATCC 19434); test: Broth microdilution antibacterial assay; assay type: cell-based, Enterococcus faecium; details: n = 3, TSY; for MIC E. faecium / EC50: mean ± standard error; for MIC E. faecium / MIC E. faecium (value in brackets): 22 h; for EC50: read-out: EC50 E. faecium
Description: as §1, §2

[6] = tested on: A. baumannii (DSM 30007, ATCC 19606); test: Broth microdilution antibacterial assay; assay type: cell-based, Acinetobacter baumannii; details: n = 3, MHB; for MIC A. baumannii / EC50: mean ± standard error; for MIC A. baumannii / MIC A. baumannii (value in brackets): 22 h; for EC50: read-out: EC50 A. baumannii
Description: as §1, §2

[7] = tested on: E. coli (DSM1116, ATCC 9637); test: microbe, parasite or virus in culture; assay type: cell-based, Escherichia coli; details: n = 3, MHB; for EC50 / MIC E. coli: mean ± standard error; for MIC E. coli / MIC E. coli (value in brackets): 22 h
Description: as §1, §2

SMILES | MIC K. pneumoniae [1] | EC50 [1] | MIC K. pneumoniae (value in brackets) [1] | MIC MRSA [2] | EC50 [2] | MIC MRSA (value in brackets) [2] | Molar conductivity ΛM ([3]; 1 h after dissolution) | Molar conductivity ΛM ([3]; 24 h after dissolution) | MIC P. aeruginosa [4] | EC50 [4] | MIC P. aeruginosa (value in brackets) [4] | MIC E. faecium [5] | EC50 [5] | MIC E. faecium (value in brackets) [5] | MIC A. baumannii [6] | EC50 [6] | MIC A. baumannii (value in brackets) [6] | EC50 [7] | MIC E. coli [7] | MIC E. coli (value in brackets) [7]
Cn1[c](=[Ag][Br])n(Cc2ccccn2)c2ccccc21 [1b, Bromido (1-Methyl-3-(pyridin-2-ylmethyl)-benzimidazol-2-ylidene) Silver(I)] | 16.2 ± 3.2 µM | 10 ± 2.2 µM | 7 µg/mL | 156 ± 0.0 µM | 134 ± 14 µM | 64 µg/mL | 4.75 S cm^2 mol^–^1 | 4.82 S cm^2 mol^–^1 | 25.9 ± 6.5 µM | 10.9 ± 3.9 µM | 11 µg/mL | 156 ± 0.0 µM | 129 ± 2.8 µM | 64 µg/mL | 16.2 ± 3.2 µM | 2.6 ± 0.3 µM | 7 µg/mL | 71.3 ± 6.7 µM | 103 ± 25 µM | 43 µg/mL
CCn1[c](=[Ag][Cl])n(Cc2ccccn2)c2ccccc21 [2a, Chlorido (1-Ethyl-3-(pyridin-2-ylmethyl)-benzimidazol-2-ylidene) Silver(I)] | 17.5 ± 3.5 µM | 12 ± 0.9 µM | 7 µg/mL | 168 ± 0.0 µM | 98.5 ± 0.8 µM | 64 µg/mL | 3.47 S cm^2 mol^–^1 | 3.03 S cm^2 mol^–^1 | 10.5 ± 0.0 µM | 6.4 ± 0.5 µM | 4 µg/mL | 168 ± 0.0 µM | 132 ± 6.8 µM | 64 µg/mL | 10.5 ± 0.0 µM | 2.4 ± 0.1 µM | 4 µg/mL | 33.3 ± 4.7 µM | 56.0 ± 14.0 µM | 21 µg/mL
CCn1[c](=[Ag][Br])n(Cc2ccccn2)c2ccccc21 [2b, Bromido (1-Ethyl-3-(pyridin-2-ylmethyl)-benzimidazol-2-ylidene) Silver(I)] | 15.7 ± 3.1 µM | 9 ± 1 µM | 7 µg/mL | 151 ± 0.0 µM | 88.5 ± 1.6 µM | 64 µg/mL | 5.47 S cm^2 mol^–^1 | 5.07 S cm^2 mol^–^1 | 9.4 ± 0.0 µM | 6.9 ± 0.5 µM | 4 µg/mL | 151 ± 0.0 µM | 128 ± 0.9 µM | 64 µg/mL | 12.5 ± 3.1 µM | 2.2 ± 0.3 µM | 5 µg/mL | 35.6 ± 9.4 µM | 50.2 ± 12.5 µM | 21 µg/mL
[Cl][Ag][c]1n(Cc2ccccc2)c2ccccc2[n+]1Cc1ccccn1 [5a] | 18.1 ± 0.0 µM | 8.5 ± 1 µM | 8 µg/mL | 145 ± 0.0 µM | 82.9 ± 1.5 µM | 64 µg/mL | 4.24 S cm^2 mol^–^1 | 3.70 S cm^2 mol^–^1 | 30.1 ± 6.0 µM | 16 ± 1.7 µM | 13 µg/mL | 145 ± 0.0 µM | 119 ± 3.6 µM | 64 µg/mL | 9.0 ± 0.0 µM | 1.7 µM | 4 µg/mL | 35.1 ± 1.1 µM | 60.2 ± 12.0 µM | 27 µg/mL
[Br][Ag]=[c]1n(Cc2ccccc2)c2ccccc2n1Cc1ccccn1 [5b, Bromido (1-(Pyridin-2-ylmethyl)-3-benzyl-benzimidazol-2-ylidene) Silver(I)] | 16.4 ± 0.0 µM | 9.5 ± 0.3 µM | 8 µg/mL | 131 ± 0.0 µM | 75.5 ± 1.4 µM | 64 µg/mL | 6.58 S cm^2 mol^–^1 | 5.68 S cm^2 mol^–^1 | 65.7 ± 0.0 µM | 28.2 ± 2.7 µM | 32 µg/mL | 131 ± 0.0 µM | 111 ± 0.2 µM | 64 µg/mL | 16.4 ± 0.0 µM | 0.72 ± 0.15 µM | 8 µg/mL | 27.1 ± 1.2 µM | 32.8 ± 0.0 µM | 16 µg/mL
